Reference: patent US20250325663A1, “MEDICAMENT FOR TREATMENT AND/OR PREVENTION OF CANCER” (TORAY INDUSTRIES, INC., priority 2021, published 2025)

Test system: colon cancer cell line HCT116
Test: Proliferation rate of HCT116 in culture with drug
Format: cell-based, human
Conditions: cultured for 2 days
Description: The human-derived cancer cells used were a colon cancer cell line HCT116, a melanoma cell line A375 (used only in the tunicamycin combination test group), a lung cancer cell line A549 (used only in the tunicamycin combination test group), and a prostate cancer cell line DU145 (used only in the tunicamycin combination test group). On a 6-well plate, the human-derived cancer cells were cultured for 1 day in the presence of tunicamycin for the tunicamycin combination test group, and cultured for 2 days in the presence of the relevant drug used in combination for the fluorouracil combination test group and the irinotecan combination test group. The concentration of the drug used in combination was set to a concentration that decreased the proliferation rate of the cancer cells by about half at the completion of culture. […] As a control, a test group without a drug used in combination was established. In the control group, only DMSO (dimethyl sulfoxide), a solvent for the drug used in combination, was added to the cancer cells at a final concentration of 0.1% (v/v), and then the cancer cells were cultured for 2 days.

O=c1[nH]cc(F)c(=O)[nH]1 [fluorouracil]
concentration that decreased the proliferation rate of the cancer cells by about half at the completion of culture: 0.4 µg/mL
